From patent US6841567B1, “Cyclic substituted fused pyrrolocarbazoles and isoindolones” (Cephalon, Inc., priority 1999, dated 2005)

Key:
[1] = molecular target: protein kinase C (UBI; mixed isozymes of a, b, g); test: Inhibition of protein kinase C activity (Millipore Multiscreen TCA in-plate assay); assay type: biochemical
Experimental: Protein kinase C activity was assessed using the Millipore Multiscreen TCA “in-plate” assay as described in Pitt, A. M. and Lee, C. (J. Biomol. Screening, 1: 47-51, 1996). Assays were performed in 96-well Multiscreen-DP plates (Millipore). Each […] assay mixture contained 20 mM Hepes, pH 7.4, 10 mM MgCl2, 2.5 mM EGTA, 2.5 mM CaCl2, […] phosphatidyl serine, […] diolein, […] histone H-1 (Fluka), […] [γ-^32P]ATP, 1.5 ng protein kinase C (UBI; mixed isozymes of a, b, g), 0.1% BSA, 2% DMSO, and test cyclic substituted fused pyrrolocarbazole compound. The reaction was allowed to proceed for 10 min at 37° C., then quenched by adding ice cold 50% trichloroacetic acid. The plates were allowed to equilibrate for 30 min at 4° C., then washed with ice cold 25% TCA. Scintillation cocktail was added to the plates, and the radioactivity was determined using Wallac MicroBeta 1450 PLUS scintillation counter. The IC50 values were calculated by fitting the data to the sigmoidal dose-response (variable slope) equation in GraphPad Prism.

[2] = molecular target: T1, trkA (NIH3T3 cells transfected with trkA) (Homo sapiens, UniProt P04629); test: Inhibition of NGF-stimulated trk phosphorylation in a whole cell preparation; assay type: cell-based; parameters: key to Cell Score @ 100 nM (percent decrease in trk protein band): 0=no decrease; 1=1-25%; 2=26-49%; 3=50-75%; 4=76-100%; conditions: NGF 10 ng/ml; for Cell Score @ 100 nM (percent decrease in trk protein band): 100 nM compound; for Cell Score @ 1 uM (percent decrease in trk protein band): 1 uM compound
T1 construct: expressed in transfected cells; host or cells: NIH3T3
Experimental: NIH3T3 cells transfected with trkA were grown in 100 mm dishes. Subconfluent cells were serum-starved by replacing media with serum-free 0.05% BSA-DMEM containing compound (100 nM and 1 μM) or DMSO (added to controls) for one hour at 37° C. NGF (Harlan/Bioproducts for Science) was then added to the cells at a concentration of 10 ng/ml for 5 minutes. Cells were lysed in buffer containing detergent and protease inhibitors. Clarified cell lysates were normalized to protein using BCA method and immunoprecipitated with antII-trk antibody. Polyclonal antII-trk antibody was prepared against a peptide corresponding to the 14 amino acids at the carboxy terminus of trk (Martin-Zanca et al., Mol. Cell. Biol. 9: 24-33, 1989). The immune complexes were collected on Protein A Sepharose beads (Sigma Chem. Co., St. Lois, Mo.), separated by SDS polyacrylamide gel electrophoresis (SDS-PAGE), and transferred to a polyvinylidene difluoride (PVDF) membrane. The membrane was immunoblotted with antII-phosphotyrosine antibody (UBI), followed by incubation with horseradish peroxidase coupled goat antII-mouse IgG (Bio-Rad Laboratories, Hercules, Calif.). Phosphorylated proteins were visualized using ECL (Arnersham Life Science, Inc., Arlington Heights, Ill.). The area of the trk protein band was measured and compared to NGF-stimulated control. The inhibition scoring system used, based on percent decrease in trk protein band, was as follows: 0=no decrease; 1=1-25%; 2=26-49%; 3=50-75%; 4=76-100%.

[3] = molecular target: T2, baculovirus-expressed human trkA cytoplasmic domain (Homo sapiens, UniProt P04629); test: Inhibition of trkA tyrosine kinase activity (ELISA-based assay); assay type: biochemical; conditions: for IC50: 40 μM ATP
T2 construct: baculovirus-expressed human trkA cytoplasmic domain; made in house; host or cells: baculovirus expression system
Experimental: Selected cyclic substituted fused pyrrolocarbazole and isoindolone compounds were tested for their ability to inhibit the kinase activity of baculovirus-expressed human trkA cytoplasmic domain using an ELISA-based assay as previously described (Angeles et al., Anal. Biochem. 236: 49-55, 1996). Briefly, the 96-well microtiter plate was coated with substrate solution (recombinant human phospholipase C-γ1/glutathione S-transferase fusion protein (Rotin et al., EMBO J., 11: 559-567, 1992). Inhibition studies were performed in 100 μl assay mixtures containing 50 mM Hepes, pH 7.4, 40 μM ATP, 10 mM MnCl2, 0.1% BSA, 2% DMSO, and various concentrations of inhibitor. The reaction was initiated by addition of trkA kinase and allowed to proceed for 15 minutes at 37° C. An antibody to phosphotyrosine (UBI) was then added, followed by a secondary enzyme-conjugated antibody, alkaline phosphatase-labelled goat antII-mouse IgG (Bio-Rad). The activity of the bound enzyme was measured via an amplified detection system (Gibco-BRL). Inhibition data were analyzed using the sigimoidal dose-response (variable slope) equation in GraphPad Prism.

[4] = molecular target: T3, VEGF receptor (human flk-1, KDR, VEGFR2) kinase domain (Homo sapiens, UniProt P35968); test: Inhibition of vascular endothelial growth factor receptor kinase activity (ELISA); assay type: biochemical; conditions: for IC50: 40 μM ATP
T3 construct: VEGF receptor (human flk-1, KDR, VEGFR2) kinase domain; made in house; host or cells: baculovirus expression system
Experimental: Cyclic substituted fused pyrrolocarbazole and isoindolone compounds were examined for their inhibitory effects on the kinase activity of baculovirus-expressed VEGF receptor (human flk-1, KDR, VEGFR2) kinase domain using the procedure described for the trkA kinase ELISA assay described above. The kinase reaction mixture, consisting of 50 mM Hepes, pH 7.4, 40 μM ATP, 10 mM MnCl2, 0.1% BSA, 2% DMSO, and various concentrations of inhibitor, was transferred to PLC-γ/GST-coated plates. VEGFR kinase was added and the reaction was allowed to proceed for 15 min. at 37 C. Detection of phosphorylated product was accomplished by addition of antII-phosphotyrosine antibody (UBI). A secondary enzymeconjugated antibody was delivered to capture the antibody-phosphorylated PLC-γ/GST complex. The activity of the bound enzyme was measured via an amplified detection system (Gibco-BRL). Inhibition data were analyzed using the sigmoidal dose-response (variable slope) equation in GraphPad Prism.

[5] = molecular target: T4, PDGFβ receptor kinase domain (recombinant human PDGFRβ) (Homo sapiens, UniProt P09619); test: Inhibition of platelet derived growth factor receptor kinase activity (ELISA); assay type: biochemical; conditions: 300 nM compound
T4 construct: kinase activity of baculovirus-expressed PDGFβ receptor kinase domain; made in house; host or cells: baculovirus expression system
Experimental: Cyclic substituted fused pyrrolocarbazole and isoindolone compounds were examined for their inhibitory effects on the kinase activity of baculovirus-expressed PDGFβ receptor kinase domain using the trkA kinase ELISA described above. Assays were performed in substrate (PLC-γ/GST)-coated 96-well microtiter plates. Each 100-μl reaction mixture contained 50 mM HEPES, pH 7.4, 20 μM ATP, 10 mM MnCl2, 0.1% BSA, 2% DMSO, and various concentrations of inhibitor. The reaction was initiated by addition of prephosphorylated recombinant human enzyme (10 ng/ml PDGFRβ) and allowed to proceed for 15 minutes at 37° C. The prephosphorylated enzyme was prepared prior to use by incubation of the kinase in buffer containing 20 μM ATP and 10 mM MnCl2 for 1 hour at 4° C. Detection of phosphorylated product was done by adding horseradish peroxidase (HRP)-conjugated antII-phosphotyrosine antibody (UBI). The HRP substrate solution containing 3,3′-5,5′-tetramethylbenzidine and hydrogen peroxide was later added and the plates were incubated for 10 minutes at room temperature. The reaction was quenched with acid and the resulting absorbance was read at 450 nm using a Microplate Bio-kinetics Reader (Bio-Tek Instrument EL 312e). Inhibition data were analyzed using the sigmoidal dose-response (variable slope) equation in GraphPad Prism.

T1 sequence (P04629 33-796, species assumed): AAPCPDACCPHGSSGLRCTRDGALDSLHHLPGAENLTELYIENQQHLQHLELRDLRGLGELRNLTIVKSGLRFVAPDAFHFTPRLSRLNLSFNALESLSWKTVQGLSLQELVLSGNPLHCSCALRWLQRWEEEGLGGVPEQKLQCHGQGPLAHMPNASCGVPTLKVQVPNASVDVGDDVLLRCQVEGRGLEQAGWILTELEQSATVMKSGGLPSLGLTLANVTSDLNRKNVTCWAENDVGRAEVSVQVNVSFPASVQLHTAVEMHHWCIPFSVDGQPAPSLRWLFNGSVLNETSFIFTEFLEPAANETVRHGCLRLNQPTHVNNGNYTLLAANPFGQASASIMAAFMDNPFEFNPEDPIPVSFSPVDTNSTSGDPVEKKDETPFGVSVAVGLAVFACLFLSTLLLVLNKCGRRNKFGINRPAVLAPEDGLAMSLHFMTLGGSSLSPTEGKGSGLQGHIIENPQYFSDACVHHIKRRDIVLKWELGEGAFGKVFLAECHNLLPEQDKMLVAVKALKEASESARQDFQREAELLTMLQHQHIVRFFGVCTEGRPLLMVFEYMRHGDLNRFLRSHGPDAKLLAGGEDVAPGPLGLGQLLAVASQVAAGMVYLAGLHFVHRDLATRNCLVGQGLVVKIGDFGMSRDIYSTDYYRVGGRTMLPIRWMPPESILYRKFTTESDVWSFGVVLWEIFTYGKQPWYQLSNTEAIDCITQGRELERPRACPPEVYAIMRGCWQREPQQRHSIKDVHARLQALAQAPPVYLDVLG
T3 sequence (P35968 834-1162 limits assumed): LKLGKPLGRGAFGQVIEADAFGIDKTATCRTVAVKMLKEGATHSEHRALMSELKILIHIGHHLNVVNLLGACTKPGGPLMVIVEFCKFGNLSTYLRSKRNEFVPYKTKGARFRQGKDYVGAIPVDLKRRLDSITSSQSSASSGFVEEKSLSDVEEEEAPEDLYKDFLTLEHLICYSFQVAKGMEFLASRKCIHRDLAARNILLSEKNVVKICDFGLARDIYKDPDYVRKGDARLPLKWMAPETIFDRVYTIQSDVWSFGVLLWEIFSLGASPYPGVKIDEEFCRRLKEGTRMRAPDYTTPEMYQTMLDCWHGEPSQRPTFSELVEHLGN
T2 sequence (P04629 440-796 limits assumed): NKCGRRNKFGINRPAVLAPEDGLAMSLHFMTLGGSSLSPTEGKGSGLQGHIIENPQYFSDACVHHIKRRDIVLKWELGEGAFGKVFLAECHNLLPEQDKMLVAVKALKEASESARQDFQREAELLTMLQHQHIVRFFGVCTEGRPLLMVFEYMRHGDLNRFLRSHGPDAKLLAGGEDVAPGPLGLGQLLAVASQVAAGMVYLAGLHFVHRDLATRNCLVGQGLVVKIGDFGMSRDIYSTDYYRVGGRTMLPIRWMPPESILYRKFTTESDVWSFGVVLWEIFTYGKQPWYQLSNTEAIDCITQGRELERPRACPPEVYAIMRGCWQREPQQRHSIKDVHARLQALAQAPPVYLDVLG
T4 sequence (P09619 600-962 limits assumed): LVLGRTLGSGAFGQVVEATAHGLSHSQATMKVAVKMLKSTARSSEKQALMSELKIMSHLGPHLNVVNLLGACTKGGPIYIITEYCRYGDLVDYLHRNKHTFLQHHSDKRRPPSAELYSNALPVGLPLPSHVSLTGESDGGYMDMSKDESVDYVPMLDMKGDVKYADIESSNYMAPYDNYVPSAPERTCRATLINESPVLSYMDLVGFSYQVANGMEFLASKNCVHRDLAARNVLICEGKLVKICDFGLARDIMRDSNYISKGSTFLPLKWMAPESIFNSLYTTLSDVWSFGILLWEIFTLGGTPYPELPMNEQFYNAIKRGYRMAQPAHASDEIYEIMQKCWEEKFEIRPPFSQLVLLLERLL

Row | Compound | IC50 [1] | Cell Score @ 100 nM (percent decrease in trk protein band) [2] | Cell Score @ 1 uM (percent decrease in trk protein band) [2] | IC50 [3] | also measured
1 | CC1(C2c3ccccc3-c3c4c(c5c([nH]c6ccccc65)c32)CNC4=O)CCCO1 (racemic) [II-04] | > 10000 nM | 1 (1=1-25%) | 2 (2=26-49%) | 8 nM | –
2 | O=C1NCc2c1c1c(c3[nH]c4ccccc4c23)C(C2(O)CCSCC2)c2ccccc2-1 (stereo not drawn) [II-14] | > 10000 nM | – | – | – | inhibition at 0.3 µM ([3]; 300 nM compound, read-out: trkA kinase activity % Inh. @ 300 nM (values in parentheses)): 32%
3 | O=C1NCc2c1c1c(c3[nH]c4ccccc4c23)C(C2(CO)CCCO2)c2ccccc2-1 (single isomer, unassigned) [II-35] | > 10000 nM | 0 | 3 (3=50-75%) | 78 nM | inhibition at 0.3 µM ([4]; 300 nM compound, read-out: VEGF receptor kinase activity % Inh. @ 300 nM (values in parentheses)): 55%
4 | COc1ccc2c(c1)C(C1(CO)CCCO1)c1c-2c2c(c3c1[nH]c1ccccc13)CNC2=O (stereo not drawn) [II-53] | 2200 nM | 4 (4=76-100%) | 4 (4=76-100%) | 8 nM | IC50 [4]: 209 nM
5 | O=C1NCc2c1c1c(c3[nH]c4ccccc4c23)C(C2(CO)CCCO2)c2ccccc2-1 (single isomer, unassigned) [II-36] | > 10000 nM | 1 (1=1-25%) | 4 (4=76-100%) | 20 nM | IC50 [4]: 846 nM
6 | O=C1NCc2c1c1c(c3[nH]c4ccccc4c23)C(C2(O)CCCC2CN2CCOCC2)c2ccccc2-1 (mixture of isomers) [II-17] | – | – | – | – | PDGFRβ % inh @ 300 nM (values in parentheses) [5]: (47) %; VEGF receptor kinase activity % Inh. @ 300 nM (values in parentheses) ([4]; 300 nM compound): (33) %; trkA kinase activity % Inh. @ 300 nM (values in parentheses) ([3]; 300 nM compound): (33) %
7 | CC1(C)COC(=O)C1(O)C1c2ccccc2-c2c3c(c4c([nH]c5ccccc54)c21)CNC3=O (stereo not drawn) [II-47] | 1530 nM | 1 (1=1-25%) | 3 (3=50-75%) | 44 nM | –
8 | COCCOCc1ccc2c(c1)c1c3c(c4c(c1n2CC1CO1)Cc1ccccc1-4)C(=O)NC3 (racemic) [II-61] | 1360 nM | – | – | – | –
9 | O=C1CCC(CO)(C2c3ccccc3-c3c4c(c5c([nH]c6ccccc65)c32)CNC4=O)O1 (stereo not drawn) [II-33] | 1040 nM | – | – | 153 nM | –
10 | O=C1NCc2c1c1c(c3[nH]c4ccccc4c23)C(C2(C(O)CO)CCCO2)c2ccccc2-1 (stereo not drawn) [II-29] | 2080 nM | 0 | 4 (4=76-100%) | 16 nM | –
11 | COCCOC(=O)c1ccc2[nH]c3c4c(c5c(c3c2c1)CNC5=O)-c1ccccc1C4C1CCC(OCCOC)O1 (stereo not drawn) [II-52] | – | 2 (2=26-49%) | 3 (3=50-75%) | 27 nM | inhibition at 0.3 µM ([5]; read-out: PDGFRβ % inh @ 300 nM (values in parentheses)): 45%
